Data on 17 molecules can be found in patent publication US10202374B2, “6-aryl-4-phenylamino-quinazoline analogs as phosphoinositide-3-kinase inhibitors” (COUNCIL OF SCIENTIFIC & INDUSTRIAL RESEARCH, priority 2014, dated 2019).

One experiment addresses PI3K-δ (Homo sapiens, UniProt O00329). As to the kind of experiment: PI3K-δ assay (ADP-Glo). It is filed as biochemical. The following applies: for IC50: read-out: PI3K inhibition IC50 -δ; for Fold-selectivity for PI3K-α with respect to -δ: α versus δ isoform.
The next experiment deals with A-375 (melanoma) cells. The experiment is described as follows: MTT cytotoxicity assay, A375. It is filed as cell-based. The following applies: Homo sapiens, 48 h treatment, read-out: Anticancer activity IC50 A375. The method, then:
(§1) Compounds proposed in present invention were evaluated for their cytotoxic effect against panel of 5 cancer cell line viz. Panc-1 (pancreatic cancer), MCF-7 (breast cancer), PC-3 (prostate), HL-60 (leukemia) and A-375 (melanoma) using MTT assay. In each well of a 96-well plate, 3×10^3 cells were grown in 100 μL of medium. After 24 h, each test molecules were added to achieve a final concentration of 10 to 0.01 μmol/L, respectively. After 48 h of treatment, 20 μL of 2.5 mg/mL MTT (Organics Research, Inc.) solution in phosphate buffer saline was added to each well. […], supernatant was removed and formazan crystals were dissolved in 200 μL of DMSO. Absorbance was then measured at 570 nm using an absorbance plate reader (Bio-Rad Microplate Reader). Data are expressed as the percentage of viable cells in treated relative to non-treated conditions. Each experiment was repeated thrice and data was expressed as mean±SD of three independent experiments (Mordant, P. et al., Mol. Cancer Ther. 2010, 9, 358).
For orientation: Formazan colour is commonly taken as a measure of viable cells.

In a further experiment the target is PI3K-α (Homo sapiens, UniProt P42336). The experiment is described as follows: PI3K-α assay (ADP-Glo). It is filed as biochemical. The following applies: for inhibition at 0.5 µM / % Inhibition of PI3K-α at 0.5 μM: preliminary screening; for IC50: read-out: PI3K inhibition IC50 -α. For orientation: ADP-Glo turns the ADP formed in a reaction into a luminescent signal.

For experiment [1], the system named is Panc-1 (pancreatic cancer) cells. As to the kind of experiment: MTT cytotoxicity assay, Panc-1. It is filed as cell-based. The following applies: Homo sapiens, 48 h treatment, read-out: Anticancer activity IC50 Panc-1. The method, then:
as §1

Experiment [2] relates to PC-3 (prostate cancer) cells. As to the kind of experiment: MTT cytotoxicity assay, PC-3. It is filed as cell-based. The conditions noted are these: Homo sapiens, 48 h treatment, read-out: Anticancer activity IC50 PC-3. The protocol: as §1
Another experiment has as its target PI3K-γ (Homo sapiens, UniProt P48736). The experiment is described as follows: PI3K-γ assay (ADP-Glo). The following applies: for IC50: read-out: PI3K inhibition IC50 -γ; for Fold-selectivity for PI3K-α with respect to -γ: α versus γ isoform. The format is biochemical.
In the next experiment the test system is HL-60 (leukemia) cells. As to the kind of experiment: MTT cytotoxicity assay, HL-60. The format is cell-based. The conditions noted are these: Homo sapiens, 48 h treatment, read-out: Anticancer activity IC50 HL-60. The method, then:
as §1

Experiment [3] deals with MCF-7 (breast cancer) cells. The experiment is described as follows: MTT cytotoxicity assay, MCF-7. The following applies: Homo sapiens, MCF7, 48 h treatment, read-out: Anticancer activity IC50 MCF-7. The format is cell-based. The method, then: as §1
The next experiment deals with PI3K-β (Homo sapiens, UniProt P42338). The experiment is described as follows: PI3K-β assay (ADP-Glo). It is filed as biochemical. The conditions noted are these: for IC50: read-out: PI3K inhibition IC50 -β; for Fold-selectivity for PI3K-α with respect to -β: α versus β isoform.
Sequence of PI3K-β (P42338 whole entry, species assumed, canonical isoform): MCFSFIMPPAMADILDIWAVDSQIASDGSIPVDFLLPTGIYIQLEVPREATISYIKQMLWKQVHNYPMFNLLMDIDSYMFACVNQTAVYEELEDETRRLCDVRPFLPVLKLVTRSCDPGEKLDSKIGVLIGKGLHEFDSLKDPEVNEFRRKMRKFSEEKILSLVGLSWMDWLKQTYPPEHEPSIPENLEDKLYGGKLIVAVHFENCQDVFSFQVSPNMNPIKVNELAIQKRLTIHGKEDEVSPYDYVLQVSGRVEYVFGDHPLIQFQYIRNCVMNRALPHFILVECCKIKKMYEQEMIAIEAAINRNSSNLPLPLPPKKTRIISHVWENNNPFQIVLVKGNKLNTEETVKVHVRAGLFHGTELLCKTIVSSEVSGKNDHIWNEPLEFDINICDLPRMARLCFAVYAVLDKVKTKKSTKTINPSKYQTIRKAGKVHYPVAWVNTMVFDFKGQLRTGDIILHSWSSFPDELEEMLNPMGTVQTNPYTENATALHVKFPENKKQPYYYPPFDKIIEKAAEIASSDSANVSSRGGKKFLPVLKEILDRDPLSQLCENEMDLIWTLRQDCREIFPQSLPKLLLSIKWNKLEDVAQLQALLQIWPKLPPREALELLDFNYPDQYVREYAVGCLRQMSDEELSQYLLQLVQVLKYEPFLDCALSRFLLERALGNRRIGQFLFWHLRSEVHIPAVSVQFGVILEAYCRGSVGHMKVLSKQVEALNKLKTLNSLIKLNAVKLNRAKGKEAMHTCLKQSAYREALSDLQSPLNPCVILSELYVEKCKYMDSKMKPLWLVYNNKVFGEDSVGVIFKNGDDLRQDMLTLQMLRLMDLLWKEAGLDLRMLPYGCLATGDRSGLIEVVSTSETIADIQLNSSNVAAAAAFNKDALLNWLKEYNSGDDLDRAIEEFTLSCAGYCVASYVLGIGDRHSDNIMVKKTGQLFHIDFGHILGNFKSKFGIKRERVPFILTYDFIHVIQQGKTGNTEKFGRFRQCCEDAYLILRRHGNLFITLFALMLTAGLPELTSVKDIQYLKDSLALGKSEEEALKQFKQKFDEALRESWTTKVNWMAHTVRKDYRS
Sequence of PI3K-β (P27986 whole entry partner, species assumed, canonical isoform): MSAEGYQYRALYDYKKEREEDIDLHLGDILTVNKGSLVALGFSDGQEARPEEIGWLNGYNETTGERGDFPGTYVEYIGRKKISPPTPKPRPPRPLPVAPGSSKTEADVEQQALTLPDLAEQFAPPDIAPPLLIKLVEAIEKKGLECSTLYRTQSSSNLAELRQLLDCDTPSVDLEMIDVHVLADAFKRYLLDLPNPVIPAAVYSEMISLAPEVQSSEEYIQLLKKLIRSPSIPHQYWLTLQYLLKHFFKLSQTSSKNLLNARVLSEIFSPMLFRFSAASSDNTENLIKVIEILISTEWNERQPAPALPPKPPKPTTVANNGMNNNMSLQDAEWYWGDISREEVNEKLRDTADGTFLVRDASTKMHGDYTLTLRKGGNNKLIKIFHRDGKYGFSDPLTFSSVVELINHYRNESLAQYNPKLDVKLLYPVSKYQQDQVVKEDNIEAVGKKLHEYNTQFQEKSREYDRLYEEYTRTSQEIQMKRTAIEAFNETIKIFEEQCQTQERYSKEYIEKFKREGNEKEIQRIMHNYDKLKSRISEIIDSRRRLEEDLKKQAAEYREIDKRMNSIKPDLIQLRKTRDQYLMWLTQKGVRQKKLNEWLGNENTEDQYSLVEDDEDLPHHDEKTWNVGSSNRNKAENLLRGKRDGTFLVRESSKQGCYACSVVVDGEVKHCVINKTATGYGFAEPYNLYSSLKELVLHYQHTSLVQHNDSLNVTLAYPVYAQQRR

Sequence of PI3K-γ (P48736 whole entry, species assumed, canonical isoform): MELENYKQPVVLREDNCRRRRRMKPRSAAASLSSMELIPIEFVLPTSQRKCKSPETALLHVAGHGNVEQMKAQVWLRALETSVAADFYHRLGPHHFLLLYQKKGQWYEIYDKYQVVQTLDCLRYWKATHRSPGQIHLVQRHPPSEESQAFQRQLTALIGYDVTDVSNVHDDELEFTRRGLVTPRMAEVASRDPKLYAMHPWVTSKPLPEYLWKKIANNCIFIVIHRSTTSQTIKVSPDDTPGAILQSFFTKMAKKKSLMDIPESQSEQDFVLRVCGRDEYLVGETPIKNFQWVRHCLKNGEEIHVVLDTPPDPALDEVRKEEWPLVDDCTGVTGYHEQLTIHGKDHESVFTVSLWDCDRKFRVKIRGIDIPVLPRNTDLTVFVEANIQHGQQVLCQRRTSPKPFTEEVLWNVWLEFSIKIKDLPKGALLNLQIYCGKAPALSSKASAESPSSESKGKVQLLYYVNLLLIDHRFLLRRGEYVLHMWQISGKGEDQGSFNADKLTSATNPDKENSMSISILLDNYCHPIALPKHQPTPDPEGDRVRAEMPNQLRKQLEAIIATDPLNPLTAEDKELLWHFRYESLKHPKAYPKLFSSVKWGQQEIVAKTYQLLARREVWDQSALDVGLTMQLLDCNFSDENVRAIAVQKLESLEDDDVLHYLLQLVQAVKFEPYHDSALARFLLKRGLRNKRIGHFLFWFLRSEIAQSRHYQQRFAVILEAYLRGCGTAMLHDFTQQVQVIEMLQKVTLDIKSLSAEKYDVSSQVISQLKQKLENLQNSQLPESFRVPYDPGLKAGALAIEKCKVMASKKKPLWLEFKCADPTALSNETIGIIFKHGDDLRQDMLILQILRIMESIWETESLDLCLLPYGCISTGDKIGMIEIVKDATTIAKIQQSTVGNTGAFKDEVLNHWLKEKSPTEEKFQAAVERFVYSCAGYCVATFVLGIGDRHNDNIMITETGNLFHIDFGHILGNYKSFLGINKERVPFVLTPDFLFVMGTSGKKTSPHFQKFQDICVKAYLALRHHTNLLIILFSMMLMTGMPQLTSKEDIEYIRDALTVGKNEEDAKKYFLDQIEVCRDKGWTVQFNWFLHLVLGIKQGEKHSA
Sequence of PI3K-δ (O00329 whole entry, species assumed, canonical isoform): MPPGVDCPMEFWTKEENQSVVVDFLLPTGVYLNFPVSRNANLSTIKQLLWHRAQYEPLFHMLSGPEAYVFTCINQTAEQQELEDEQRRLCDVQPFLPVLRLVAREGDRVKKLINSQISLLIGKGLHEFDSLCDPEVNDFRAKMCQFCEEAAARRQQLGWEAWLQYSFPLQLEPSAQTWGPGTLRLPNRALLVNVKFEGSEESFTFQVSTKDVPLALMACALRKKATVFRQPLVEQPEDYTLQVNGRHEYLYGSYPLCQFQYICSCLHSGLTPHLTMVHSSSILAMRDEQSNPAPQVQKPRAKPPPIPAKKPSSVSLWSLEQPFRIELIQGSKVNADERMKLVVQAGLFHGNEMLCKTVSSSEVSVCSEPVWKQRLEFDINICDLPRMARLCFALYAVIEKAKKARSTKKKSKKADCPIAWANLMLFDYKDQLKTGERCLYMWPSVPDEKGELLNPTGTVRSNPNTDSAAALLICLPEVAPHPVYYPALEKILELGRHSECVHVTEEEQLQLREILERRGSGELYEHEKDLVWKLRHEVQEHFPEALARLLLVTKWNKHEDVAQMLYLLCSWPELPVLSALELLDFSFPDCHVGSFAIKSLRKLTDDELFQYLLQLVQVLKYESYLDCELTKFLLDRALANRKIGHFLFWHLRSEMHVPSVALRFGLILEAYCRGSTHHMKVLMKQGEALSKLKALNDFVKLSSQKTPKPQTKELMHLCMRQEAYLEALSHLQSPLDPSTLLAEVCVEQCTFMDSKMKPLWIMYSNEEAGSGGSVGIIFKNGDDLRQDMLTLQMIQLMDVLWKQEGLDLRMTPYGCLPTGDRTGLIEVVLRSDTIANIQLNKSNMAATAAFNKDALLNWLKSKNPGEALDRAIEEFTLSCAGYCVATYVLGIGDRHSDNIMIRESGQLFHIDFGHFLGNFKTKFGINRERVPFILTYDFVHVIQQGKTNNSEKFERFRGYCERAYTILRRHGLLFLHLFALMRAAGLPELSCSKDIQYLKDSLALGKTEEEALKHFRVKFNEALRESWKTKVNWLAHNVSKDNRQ
Sequence of PI3K-δ (P27986 whole entry partner, species assumed, canonical isoform): as the sequence (P27986 whole entry partner, species assumed, canonical isoform) above
Sequence of PI3K-α (P42336 whole entry): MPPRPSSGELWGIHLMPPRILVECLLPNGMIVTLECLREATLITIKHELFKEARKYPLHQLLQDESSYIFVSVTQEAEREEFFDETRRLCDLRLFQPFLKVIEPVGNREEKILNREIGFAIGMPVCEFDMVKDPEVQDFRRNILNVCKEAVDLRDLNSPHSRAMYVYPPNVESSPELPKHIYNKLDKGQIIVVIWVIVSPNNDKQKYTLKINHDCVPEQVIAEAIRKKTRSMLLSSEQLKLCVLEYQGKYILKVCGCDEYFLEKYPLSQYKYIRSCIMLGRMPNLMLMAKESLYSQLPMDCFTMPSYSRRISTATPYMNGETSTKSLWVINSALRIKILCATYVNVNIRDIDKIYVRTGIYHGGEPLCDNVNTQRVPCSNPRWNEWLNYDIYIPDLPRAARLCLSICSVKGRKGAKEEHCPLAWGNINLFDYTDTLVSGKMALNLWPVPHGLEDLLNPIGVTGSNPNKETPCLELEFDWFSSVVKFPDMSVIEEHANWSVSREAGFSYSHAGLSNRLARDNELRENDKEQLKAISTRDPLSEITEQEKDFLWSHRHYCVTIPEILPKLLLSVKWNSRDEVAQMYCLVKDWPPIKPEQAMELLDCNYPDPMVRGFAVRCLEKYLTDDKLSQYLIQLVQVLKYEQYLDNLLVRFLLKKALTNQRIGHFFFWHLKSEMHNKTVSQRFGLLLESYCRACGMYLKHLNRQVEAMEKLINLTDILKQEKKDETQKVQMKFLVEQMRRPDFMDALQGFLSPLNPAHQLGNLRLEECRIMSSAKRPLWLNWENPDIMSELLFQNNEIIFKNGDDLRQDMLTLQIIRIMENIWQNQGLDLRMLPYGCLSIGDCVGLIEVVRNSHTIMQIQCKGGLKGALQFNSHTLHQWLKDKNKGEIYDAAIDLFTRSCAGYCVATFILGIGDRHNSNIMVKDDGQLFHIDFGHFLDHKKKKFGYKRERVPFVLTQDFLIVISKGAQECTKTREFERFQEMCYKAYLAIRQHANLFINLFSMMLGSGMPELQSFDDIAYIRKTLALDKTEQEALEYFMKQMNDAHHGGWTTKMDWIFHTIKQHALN
Sequence of PI3K-α (P27986 whole entry partner): as the sequence (P27986 whole entry partner, species assumed, canonical isoform) above
Description for PI3K-α: The enzyme is assayed for 80 min after which 20 ul of ADP-Glo reagent is added. After a further incubation of 40 min, 40 ul of Kinase Detection Buffer is added. The assays are incubated for 40 min and then read on PerkinElmer Envision for 1 sec/well.
Description for PI3K-β: The enzyme is assayed for 60 min after which 20 ul of ADP-Glo reagent is added. After a further incubation of 40 min, 40 ul of kinase detection Buffer is added. The assays are incubated for 40 min and then read on PerkinElmer Envision for 1 sec/well.
Description for PI3K-γ: The enzyme is assayed for 75 min after which 20 ul of ADP-Glo reagent is added. After a further incubation of 40 min, 40 ul of Kinase Detection Buffer is added. The assays are incubated for 40 min and then read on PerkinElmer Envision for 1 sec/well.
Description for PI3K-δ: Compounds proposed in present invention were evaluated for their inhibitory activity on phosphoinositide-3-kinase-alpha and other isoforms (beta, gamma and delta). […] The protocols used for these bioassays are as follows:
The enzyme is assayed for 120 min after which 20 ul of ADP-Glo reagent is added. After a further incubation of 40 min, 40 ul of Kinase Detection Buffer is added. The assays are incubated for 40 min and then read on PerkinElmer Envision for 1 sec/well.

As for `C=Cc1ccc(-c2ccc3ncnc(Nc4ccc(CC#N)cc4)c3c2)cc1` [Compound 13, 6-(4-vinylphenyl)-4-(4-cyanomethyl)phenylamino quinazoline], the 50% inhibitory concentration (IC50) (as a rule, the concentration that inhibits the measured activity by half) was greater than 10 µM at PI3K-δ; 27 µM with A-375 (melanoma) cells; greater than 10 µM at PI3K-α; 32 µM in experiment [1]; 34 µM in experiment [2]; 0.52 µM at PI3K-γ. The values for the half-maximal inhibitory concentration (IC50) (in the experiment with HL-60 (leukemia) cells; in experiment [3]; at PI3K-β) were 16 µM, 11 µM and greater than 10 µM, respectively. Moreover, at PI3K-δ, the “Fold-selectivity for PI3K-α with respect to -δ” value (“Fold-selectivity for PI3K-α … -δ” for short) came to 1 fold. Besides, the inhibition (as a rule, the change of the read-out against control, counted positive when it falls) at 0.5 µM against PI3K-α worked out at 36.4%. Moreover, on PI3K-β, the “Fold-selectivity for PI3K-α with respect to -β” value (“Fold-selectivity for PI3K-α … -β” for short) is reported as 1 fold.

As to `N#CCc1ccc(Nc2ncnc3ccc(-c4ccc(-c5ccccc5)cc4F)cc23)cc1` [Compound 18, 6-(4-phenyl-2-fluorophenyl)-4-(4-cyanomethyl)phenylamino-quinazoline], the IC50 amounted to 32 µM in the experiment with A-375 (melanoma) cells; 33 µM in experiment [1]; 14 µM in experiment [2]; 16 µM in the experiment on HL-60 (leukemia) cells; 13 µM in [3]. The molecule further yielded an inhibition at 0.5 µM against PI3K-α of 20.3%.

For `N#CCc1ccc(Nc2ncnc3ccc(-c4ccccc4C=O)cc23)cc1` [Compound 8, 6-(2-formylphenyl)-4-(4-cyanomethyl)phenylamino quinazoline], the IC50 was determined as 39 µM with A-375 (melanoma) cells; 90 µM in [1]; 21 µM in [2]; 42 µM in the experiment on HL-60 (leukemia) cells; 91 µM in experiment [3]. Also, at PI3K-α, at 0.5 µM the inhibition was 1.3%.

For `N#CCc1ccc(Nc2ncnc3ccc(-c4cccc5c4oc4ccccc45)cc23)cc1` [Compound 24, 6-(dibenzo(b,d)furan-4-yl)-4-(4-cyanomethyl)phenylamino-quinazoline], the half-inhibitory concentration (IC50) was 36 µM in the experiment on A-375 (melanoma) cells; 31 µM in experiment [1]; 16 µM in experiment [2]; 12 µM in the experiment with HL-60 (leukemia) cells; 27 µM in [3]. For the same molecule, 0.5 µM produced 1.5% inhibition against PI3K-α.

In the case of `N#CCc1ccc(Nc2ncnc3ccc(-c4ccncc4)cc23)cc1` [Compound 28, 6-(pyridin-4-yl)-4-(4-cyanomethyl)phenylamino-quinazoline], the IC50 was greater than 10 µM at PI3K-δ; 35 µM in the experiment with A-375 (melanoma) cells; 0.704 µM at PI3K-α; 39 µM in [1]; 76 µM in [2]; 0.36 µM at PI3K-γ. The IC50 was 32 µM in the experiment on HL-60 (leukemia) cells, 32 µM in experiment [3] and greater than 10 µM on PI3K-β. On PI3K-δ, the “Fold-selectivity for PI3K-α … -δ” value was greater than 14.2 fold. The “% Inhibition of PI3K-α at 0.5 μM” value on PI3K-α is reported as 45.6%. Further, the inhibition at 0.5 µM against PI3K-α was greater than 40%. Moreover, on PI3K-γ, the “Fold-selectivity for PI3K-α with respect to -γ” value is listed as 0.5 fold. Also, the “Fold-selectivity for PI3K-α … -β” value on PI3K-β was greater than 14.2 fold.

`N#CCc1ccc(Nc2ncnc3ccc(-c4cc5ccccc5s4)cc23)cc1` [Compound 23, 6-(benzo[b]thiophen-2-yl)-4-(4-cyanomethyl)phenylamino-quinazoline]: the IC50 in the experiment on A-375 (melanoma) cells was determined as 14 µM; in experiment [1] it was 24 µM; in experiment [2] it was 13 µM; with HL-60 (leukemia) cells, 14 µM; in experiment [3], 8 µM. On PI3K-α, this molecule returned an inhibition at 0.5 µM of 2.7%.

`N#CCc1ccc(Nc2ncnc3ccc(-c4ccc5c(c4)OCO5)cc23)cc1` [Compound 21, 6-(benzo[d][1,3]dioxol-5-yl)-4-(4-cyanomethyl)phenylamino-quinazoline]: the IC50 at PI3K-δ was greater than 10 µM; in the experiment on A-375 (melanoma) cells, 24 µM; on PI3K-α it was 0.321 µM; in experiment [1], 33 µM; in experiment [2] it was 7 µM; at PI3K-γ it was 0.19 µM. Further, the IC50 is 27 µM in the experiment on HL-60 (leukemia) cells, 34 µM in [3] and greater than 10 µM at PI3K-β. Besides, the “Fold-selectivity for PI3K-α … -δ” value at PI3K-δ is greater than 31.1 fold. The “% Inhibition of PI3K-α at 0.5 μM” value on PI3K-α is listed as 48.6%. This molecule also registered an inhibition at 0.5 µM against PI3K-α greater than 40%. Also, the “Fold-selectivity for PI3K-α with respect to -γ” value at PI3K-γ came to 0.6 fold. Besides, the “Fold-selectivity for PI3K-α … -β” value on PI3K-β is given as greater than 31.1 fold.

For `N#CCc1ccc(Nc2ncnc3ccc(-c4ccc5ccccc5c4)cc23)cc1` [Compound 19, 6-(naphthalen-2-yl)-4-(4-cyanomethyl)phenylamino-quinazoline], the concentration for half-maximal inhibition (IC50) with A-375 (melanoma) cells worked out at 31 µM; in experiment [1], 48 µM; in experiment [2], 22 µM; in the experiment with HL-60 (leukemia) cells, 25 µM; in experiment [3] it was 16 µM. For the same molecule, at PI3K-α, 0.5 µM produced 8.2% inhibition.

In the case of `N#CCc1ccc(Nc2ncnc3ccc(-c4ccc(-c5ccccc5)cc4)cc23)cc1` [Compound 16, 6-(4-phenylphenyl)-4-(4-cyanomethyl)phenylamino-quinazoline], the IC50 with A-375 (melanoma) cells amounted to 13 µM; in experiment [1], 30 µM; in [2], 10 µM; in the experiment on HL-60 (leukemia) cells, 16 µM; in experiment [3] it was 29 µM. The inhibition at 0.5 µM on PI3K-α is less than 0%.

As to `CCOc1ccc(-c2ccc(-c3ccc4ncnc(Nc5ccc(CC#N)cc5)c4c3)cc2)cc1` [Compound 17, 6-(4-(4-ethoxyphenyl)phenyl)-4-(4-cyanomethyl)phenylamino-quinazoline], the half-inhibitory concentration (IC50) with A-375 (melanoma) cells came to 30 µM; in experiment [1], 33 µM; in experiment [2], 17 µM; with HL-60 (leukemia) cells, 16 µM; in experiment [3] it was 26 µM. For the same molecule, the inhibition at 0.5 µM against PI3K-α is less than 0%.

For `N#CCc1ccc(Nc2ncnc3ccc(-c4cnc5ccccc5c4)cc23)cc1` [Compound 27, 6-(quinolin-3-yl)-4-(4-cyanomethyl)phenylamino-quinazoline], the IC50 in the experiment on A-375 (melanoma) cells stood at 89 µM; in experiment [1] it was 90 µM; in [2], 23 µM; in the experiment with HL-60 (leukemia) cells it was 44 µM; in [3], 32 µM. In addition, the inhibition at 0.5 µM against PI3K-α is less than 0%.

On to `N#CCc1ccc(Nc2ncnc3ccc(-c4cc5ccccc5o4)cc23)cc1` [Compound 22, 6-(benzofuran-2-yl)-4-(4-cyanomethyl)phenylamino-quinazoline], for which the IC50 worked out at 10 µM in the experiment on A-375 (melanoma) cells; 28 µM in experiment [1]; 8 µM in experiment [2]; 17 µM in the experiment with HL-60 (leukemia) cells; 9 µM in experiment [3]. At 0.5 µM the inhibition at PI3K-α was 29.8%.

Turning to `N#CCc1ccc(Nc2ncnc3ccc(-c4ccccc4)cc23)cc1` [Compound 6, 6-phenyl-4-(4-cyanomethyl)phenylamino quinazoline], the IC50 with A-375 (melanoma) cells turned out to be 24 µM; in experiment [1] it was 40 µM; in [2] it was 27 µM; in the experiment on HL-60 (leukemia) cells, 32 µM; in experiment [3], 23 µM. At PI3K-α, this molecule had an inhibition at 0.5 µM of 16.4%.

As for `Cc1ccccc1-c1ccc2ncnc(Nc3ccc(CC#N)cc3)c2c1` [Compound 12, 6-(2-methylphenyl)-4-(4-cyanomethyl)phenylamino quinazoline], the IC50 in the experiment with A-375 (melanoma) cells is 32 µM; in experiment [1] it was 68 µM; in experiment [2], 38 µM; in the experiment on HL-60 (leukemia) cells, 36 µM; in [3], greater than 100 µM. This molecule also showed an inhibition at 0.5 µM on PI3K-α of 4.1%.

On to `N#CCc1ccc(Nc2ncnc3ccc(-c4cccc5c4sc4ccccc45)cc23)cc1` [Compound 25, 6-(dibenzo(b,d)thiophene-4-yl)-4-(4-cyanomethyl)phenylamino-quinazoline], for which the IC50 with A-375 (melanoma) cells turned out to be 34 µM; in experiment [1], 33 µM; in experiment [2], 18 µM; in the experiment on HL-60 (leukemia) cells, 31 µM; in experiment [3] it was 34 µM. The same molecule registered an inhibition at 0.5 µM against PI3K-α of less than 0%.

Turning to `N#CCc1ccc(Nc2ncnc3ccc(-c4ccc(F)cc4F)cc23)cc1` [Compound 7, 6-(2,4-difluorophenyl)-4-(4-cyanomethyl)phenylamino quinazoline], the IC50 with A-375 (melanoma) cells stood at 9 µM; in experiment [1], 21 µM; in experiment [2], 28 µM; in the experiment on HL-60 (leukemia) cells it was 7 µM; in [3], 10 µM. Also, on PI3K-α, testing at 0.5 µM gave an inhibition of 17%.

Regarding `N#CCc1ccc(Nc2ncnc3ccc(-c4ccc(OCc5ccc(F)cc5)cc4)cc23)cc1` [Compound 14, 6-(4-fluorobenzyloxyphen-4-yl)-4-(4-cyanomethyl)phenylamino quinazoline], the 50% inhibitory concentration (IC50) in the experiment on A-375 (melanoma) cells was determined as 16 µM; in experiment [1] it was 13 µM; in experiment [2], 13 µM; in the experiment on HL-60 (leukemia) cells, 14 µM; in experiment [3], 12 µM. The molecule also came in with an inhibition at 0.5 µM at PI3K-α of 11%.
